These are literature values, as cited in paper PMC5809414, “Physician-initiated clinical study of limb ulcers treated with a functional peptide, SR-0379: from discovery to a randomized, double-blind, placebo-controlled trial” (NPJ Aging and Mechanisms of Disease, 2018).

This data set concerns venous leg ulcers. To be noted: cited from earlier work. The source says:
Recently, another anti-microbial peptide, LL-37, was similarly evaluated for venous leg ulcers.[26] The study design consisted of a 4-week randomized double-blind t ...

Like-named read-outs stand apart in the source and are kept apart here.

In the case of LL-37, the healing rate constants entry is listed as “higher than those for placebo” (0.5 mg/mL LL-37, 4-week treatment, p = 0.003 vs placebo) and “higher than those for placebo” (1.6 mg/mL LL-37, 4-week treatment, p = 0.088 vs placebo).
